By pIC50 is commonly meant −log10 of the IC50, conventionally taken in molar units. The term inhibition in vivo denotes the share of the control response that was lost under treatment. A lower inhibition in vivo goes with a response near the control. A word on the ED50: it is the dose at which the effect has come halfway, by size or by number of responders. In general, Inhibition refers to the change of the read-out against control, counted positive when it falls. As usually defined, the inhibition is the share of the control response that was lost under treatment.

pIC50: −log10 of the molar value. Activity calls are given as the source filed them. The rule behind the calls is not given here. Where only a bound is given, the exact number is not on record here.

The species named for assay [1] is Rattus norvegicus. The experiment in a line: Inhibition of galactitol accumulation in rat RBC incubated in presence of 50 mM glucose. The class given is functional, organism-based.
The test system of assay [2] is Rattus norvegicus. The experiment in a line: In vivo inhibition of galactitol accumulation in sciatic nerves of rat at 6 mg/kg/day. It is filed as functional. As to conditions: Sciatic nerve.
The species entered for assay [3] is Rattus norvegicus. The experiment in a line: inhibition of aldose reductase activity was measured by measuring […] in the sciatic nerves of galactose fed rat. It is filed as functional. As to conditions: Sciatic nerve.
The species entered for assay [4] is Rattus norvegicus. Put plainly: In vitro inhibition of sorbitol accumulation was measured in rat sciatic nerves incubated in the presence of 50 mM glucose at 10e-6 M concentration. It is filed as functional, Sciatic nerve.
Assay [5] is filed under the species Rattus norvegicus. The experiment in a line: Inhibition of galactitol accumulation in sciatic nerves of rat incubated in presence of 50 mM glucose. It is filed as functional, organism-based. As to conditions: Sciatic nerve.
Assay [6] is filed under the species Rattus norvegicus. Put plainly: In vitro inhibition of sorbitol accumulation was measured in rat sciatic nerves incubated in the presence of 50 mM glucose at 10e-5 M concentration. The class given is functional, Sciatic nerve.
For assay [7], the system named is Rattus norvegicus. The experiment in a line: In vivo inhibition of galactitol accumulation in diaphragm of rat at 6 mg/kg/day. It is filed as functional.
For assay [8], the species on record is Rattus norvegicus. Put plainly: inhibition of aldose reductase activity was measured by measuring […] in the RBC of galactose fed rat. The class given is functional.
For assay [9], the species on record is Rattus norvegicus. The experiment in a line: inhibition of aldose reductase activity was measured by measuring sorbitor accumulation in the sciatic nerves of STZ diabetic rat. It is filed as functional. As to conditions: Sciatic nerve.
The species entered for assay [10] is Rattus norvegicus. The experiment in a line: Inhibition of galactitol accumulation in rat lens incubated in presence of 50 mM glucose. The class given is functional, organism-based. As to conditions: Lens of camera-type eye.
Assay [11] concerns Rattus norvegicus. Put plainly: In vivo inhibition of galactitol accumulation in sciatic nerves of rat at 53 mg/kg/day; Not significant. The class given is functional, organism-based. As to conditions: Sciatic nerve.
For assay [12], the system named is Rattus norvegicus. Put plainly: In vivo inhibition of galactitol accumulation in diaphragm of rat at 53 mg/kg/day; Not significant. The class given is functional, organism-based.
Assay [13] deals with Aldo-keto reductase family 1 member B1 (Bos taurus) (UniProt P16116). The experiment in a line: In vitro % decrease of aldose reductase measured in isolated partially purified bovine lens preparations at 10e-7 M concentration.
Assay [14] concerns Rattus norvegicus. The experiment in a line: In vivo inhibition of galactitol accumulation in sciatic nerves of rat at 24 mg/kg/day. The class given is functional. As to conditions: Sciatic nerve.
For assay [15], the system named is Rattus norvegicus. Put plainly: In vivo inhibition of galactitol accumulation in diaphragm of rat at 24 mg/kg/day. The class given is functional.
The subject of assay [16] is Rattus norvegicus. The experiment in a line: In vivo inhibition of galactitol accumulation in diaphragm of rat at 20 mg/kg/day; Not significant. The class given is functional, organism-based.
For assay [17], the target named is Aldo-keto reductase family 1 member B1 (Bos taurus) (UniProt P16116). The experiment in a line: In vitro % decrease of aldose reductase was measured in isolated partially purified bovine lens preparations at 10e-7 M concentration; Not active.
The subject of assay [18] is Rattus norvegicus. Put plainly: In vivo inhibition of galactitol accumulation in sciatic nerves of rat at 20 mg/kg/day; Not significant. It is filed as functional, organism-based. As to conditions: Sciatic nerve.
The subject of assay [19] is Rattus norvegicus. Put plainly: In vivo inhibition of galactitol accumulation in sciatic nerves of rat at 19 mg/kg/day. The class given is functional. As to conditions: Sciatic nerve.
For assay [20], the system named is Rattus norvegicus. Put plainly: In vivo inhibition of galactitol accumulation in sciatic nerves of rat at 112 mg/kg/day; Not significant. It is filed as functional, organism-based. As to conditions: Sciatic nerve.
In assay [21] the test system is Rattus norvegicus. The experiment in a line: % reduction of aldose reductase inhibition was evaluated by measuring galactitol accumulation in diaphragm of rat at 112 mg/kg/day; Not significant. It is filed as functional, organism-based.
In assay [22] the test system is Rattus norvegicus. The experiment in a line: In vivo inhibition of galactitol accumulation in diaphragm of rat at 19 mg/kg/day. It is filed as functional.
Assay [23] has as its system Rattus norvegicus. The experiment in a line: In vivo inhibition of galactitol accumulation in sciatic nerves of rat at 114 mg/kg/day; Not significant. It is filed as functional, organism-based. As to conditions: Sciatic nerve.
Assay [24] concerns Rattus norvegicus. The experiment in a line: In vivo inhibition of galactitol accumulation in diaphragm of rat at 114 mg/kg/day; Not significant. The class given is functional, organism-based.
In assay [25] the test system is Rattus norvegicus. Put plainly: In vivo inhibition of galactitol accumulation in sciatic nerves of rat at 105 mg/kg/day; Not significant. As to conditions: Sciatic nerve. The class given is functional, organism-based.
The test system of assay [26] is Rattus norvegicus. Put plainly: In vivo inhibition of galactitol accumulation in diaphragm of rat at 105 mg/kg/day. It is filed as functional.
The test system of assay [27] is Rattus norvegicus. Put plainly: In vivo inhibition of galactitol accumulation in diaphragm of rat at 10 mg/kg/day. It is filed as functional.
The subject of assay [28] is Rattus norvegicus. Put plainly: In vivo inhibition of galactitol accumulation in sciatic nerves of rat at 10 mg/kg/day. The class given is functional. As to conditions: Sciatic nerve.
The test system of assay [29] is Rattus norvegicus. The experiment in a line: In vivo inhibition of galactitol accumulation in sciatic nerves of rat at 25 mg/kg/day. It is filed as functional. As to conditions: Sciatic nerve.
Assay [30] relates to Rattus norvegicus. Put plainly: In vivo inhibition of galactitol accumulation in sciatic nerves at 5 mg/kg/day; Not significant. The class given is functional, organism-based. As to conditions: Sciatic nerve.
In assay [31] the test system is Rattus norvegicus. The experiment in a line: In vivo inhibition of galactitol accumulation in diaphragm of rat at 25 mg/kg/day. It is filed as functional.
The subject of assay [32] is Rattus norvegicus. Put plainly: In vivo inhibition of galactitol accumulation in sciatic nerves of rat at 133 mg/kg/day. It is filed as functional. As to conditions: Sciatic nerve.
Assay [33] has as its system Rattus norvegicus. The experiment in a line: In vivo inhibition of galactitol accumulation in diaphragm of rat at 133 mg/kg/day. The class given is functional.
Assay [34] deals with Aldo-keto reductase family 1 member B1 (Bos taurus) (UniProt P16116). The experiment in a line: In vitro % decrease of aldose reductase was measured in isolated partially purified bovine lens preparations at 10e-6 M concentration.
Assay [35] deals with Rattus norvegicus. The experiment in a line: In vivo inhibition of galactitol accumulation in diaphragm of rat at 47 mg/kg/day; Not significant. It is filed as functional, organism-based.
Assay [36] deals with Rattus norvegicus. The experiment in a line: In vivo inhibition of galactitol accumulation in sciatic nerves of rat at 47 mg/kg/day; Not significant. The class given is functional, organism-based. As to conditions: Sciatic nerve.

`COc1ccc2c(C(=S)N(C)CC(=O)O)cccc2c1C(F)(F)F` [TOLRESTAT]: the pIC50 in the assay listed under Rattus norvegicus [1] is 7.82; in the assay filed under Rattus norvegicus [5] it was 6.27; in the assay listed under Rattus norvegicus [10], 6.00. The inhibition in vivo at 6 mg/kg/day in the assay with Rattus norvegicus [2] stood at 53%; in the assay with Rattus norvegicus [7], 80%. Also, the 50% effective dose (ED50) in the assay listed under Rattus norvegicus [3] is 6.4 mg/kg; in the assay filed under Rattus norvegicus [8], < 2 mg/kg; in the assay filed under Rattus norvegicus [9], 4.8 mg/kg. In addition, the Inhibition is recorded as 61% in the assay filed under Rattus norvegicus [4] and 82% in the assay listed under Rattus norvegicus [6].
Take `COc1ccc2c(C(F)(F)F)c(OC)ccc2c1C(=O)N(C)CC(=O)O`: the inhibition result in the assay on Rattus norvegicus [11] and with Rattus norvegicus [12] was “inactive” each time. The values for the Inhibition in the assay filed under Rattus norvegicus [4] and in the assay listed under Rattus norvegicus [6] were 33% and 48%, respectively. This compound displayed an inhibition in assay [13] of 62%.
In the case of `COc1ccc2c(C(=S)N(C)CC(N)=O)cc(C)cc2c1Br`, the inhibition in vivo at 24 mg/kg/day in the assay with Rattus norvegicus [14] was determined as 68%; with Rattus norvegicus [15], 70%. Besides, the inhibition entry (in the assay on Rattus norvegicus [16]; in [17]; in the assay on Rattus norvegicus [18]) was “inactive” in each case.
As for `COc1c(C)cc2c(C(=O)N(C)CC(=O)O)cccc2c1Br`, the inhibition in vivo at 19 mg/kg/day in the assay on Rattus norvegicus [19] was 77%; in the assay on Rattus norvegicus [22], 63%. For the same compound, the inhibition result in the assay on Rattus norvegicus [20] and in the assay on Rattus norvegicus [21] was “inactive” each time. Further, the inhibition in [13] amounted to 20%.
As for `COc1ccc2c(C(=O)N(C)CC(=O)O)cc(C)cc2c1Br`, the Inhibition in the assay listed under Rattus norvegicus [4] came to 20%; in the assay filed under Rattus norvegicus [6], 52%. Besides, the inhibition entry with Rattus norvegicus [23] and in the assay with Rattus norvegicus [24] was “inactive” throughout. In [13], this compound had an inhibition of 63%.
Regarding `COc1c(C)cc2c(C(=S)N(C)CC(=O)O)cccc2c1Br`, in the assay on Rattus norvegicus [25], the inhibition result was “inactive”. In the assay on Rattus norvegicus [26], this compound yielded an inhibition in vivo at 105 mg/kg/day of 34%. The inhibition in vivo at 10 mg/kg/day is 87% with Rattus norvegicus [27] and 54% in the assay on Rattus norvegicus [28]. For the same compound, the inhibition in assay [13] was found to be 8%.
For `COc1ccc2c(C(=S)N(C)CC(=O)O)c(F)ccc2c1C(F)(F)F`, the results for the inhibition in vivo at 25 mg/kg/day in the assay on Rattus norvegicus [29] and in the assay on Rattus norvegicus [31] were 92% and 93%, respectively. The inhibition entry in the assay with Rattus norvegicus [30] was “inactive”.
Take `COc1ccc2c(C(=S)N(C)CC(=O)O)cc(-c3ccccc3)cc2c1Br`: the inhibition in vivo at 133 mg/kg/day in the assay with Rattus norvegicus [32] is 58%; in the assay on Rattus norvegicus [33], 85%. Also, the Inhibition came out at 30% in the assay filed under Rattus norvegicus [4] and 68% in the assay listed under Rattus norvegicus [6]. In addition, the inhibition in assay [13] was 81%.
As for `COc1ccc2c(C(=O)N(C)CC(=O)O)c(C(C)(C)C)ccc2c1C(F)(F)F`, the results for the inhibition in assay [34] and in assay [13] were 23% and 6%, respectively. Moreover, the inhibition result in the assay on Rattus norvegicus [35] and with Rattus norvegicus [36] was “inactive” each time.

The values are drawn from ChEMBL document CHEMBL1125860 (J Med Chem, 1991).
